Values of other authors in patent US6506434B1, “Process for coating N-[N-(3,3-dimethylbutyl)-L-α-aspartyl]-L-phenylalanine 1-methyl ester onto a carrier” (The NutraSweet Company, priority 1999, dated 2003).

Conditions: relative to sugar; stated as known

For `COC(=O)[C@H](Cc1ccccc1)NC(=O)[C@H](CC(=O)O)NCCC(C)(C)C` [neotame, N-[N-(3,3-dimethylbutyl)-L-α-aspartyl]-phenylalanine 1-methyl ester], the “sweetening potency (sweeter than sugar)” value is listed as “about 8000 ×”.
